# Legend:
# trypsin IV (mesotrypsin) = conditions: versus trypsin IV (mesotrypsin); cited from earlier work
# mesotrypsin [1] = molecular target: T1, mesotrypsin (Homo sapiens, UniProt P35030); test: Competitive inhibition assay with N-Cbz-Gly-Pro-Arg-pNA, mesotrypsin; format: biochemical; conditions: for Ki: 0.25 nM enzyme, 37°C, pH 8.0, global fit to competitive inhibition, duplicate independent experiments
# T1 construct: made in house; host or cells: E. coli
# T1 sequence (P35030 81-304 limits assumed): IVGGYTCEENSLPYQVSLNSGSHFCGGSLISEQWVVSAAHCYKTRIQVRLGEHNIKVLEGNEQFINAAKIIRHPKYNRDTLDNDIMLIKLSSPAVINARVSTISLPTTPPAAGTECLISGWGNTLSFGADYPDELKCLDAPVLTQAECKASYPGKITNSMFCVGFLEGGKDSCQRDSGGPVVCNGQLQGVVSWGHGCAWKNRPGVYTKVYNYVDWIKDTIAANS
# Source text: (§1) Recombinant human anionic trypsinogen, human cationic trypsinogen and human mesotrypsinogen were expressed in E. coli, extracted from inclusion bodies, refolded, purified and activated with bovine enteropeptidase as described in previous work.
# (§2) Active mesotrypsin was quantified by active site titration as described in [21] using 4-nitrophenyl-4-guanidinobenzoate (NPGB) from Sigma. Concentrations of colorimetric peptide reporter substrate N-Cbz-Gly-Pro-Arg-pNA (Sigma) for the activity and competitive inhibition assay were determined by end point assay. Working stocks for compounds were diluted in dimethylsulfoxide (DMSO) and stored at -20°C. Compounds were assessed for mesotrypsin inhibitory activity in reactions carried out in cuvettes at 37°C in a Varian Cary-100 spectrophotometer. Reactions consisted of 0.25 nM enzyme, 100 μM reporter substrate, 100 mM Tris-HCl pH 8.0, 1 mM CaCl2, and a compound concentration range between 50 nM to 500 μM in the assay. Reactions were followed for approximately three minutes, with the initial rates determined by the linear increase in absorbance resulting from para-nitroaniline production (ε410 = 8480 M^-1 cm^-1). Absorbance versus compound concentration was plotted on a Linear-Log scale to determine IC50.
# (§3) The competitive inhibition assay reactions consisted of 0.25 nM enzyme, five reporter substrate concentrations between 10 μM-200 μM, and five inhibitory compound concentrations between 1–30 μM. Reactions were followed for approximately 3 minutes, and the initial rate data were globally fitted using Prism (GraphPad Software, San Diego CA) by non-linear regression based on Eq 1. Results are from duplicate independent experiments.
# (§4) V= Kcat[E]o[S]/Km (1+[I]/Ki)+[S] (1)
# [2] = molecular target: T2, trypsin 2 (anionic trypsin) (Homo sapiens, UniProt P07478); test: Competitive inhibition assay, anionic trypsin; format: biochemical; conditions: human trypsin 2
# T2 construct: made in house; host or cells: E. coli
# Protocol: (§5) To assess compound selectivity we determined Ki for the three compounds towards related human trypsin isoforms trypsin 1 (cationic trypsin) and trypsin 2 (anionic trypsin).
# as §1, §3, §4
# [3] = molecular target: T3, trypsin 1 (cationic trypsin) (Homo sapiens, UniProt P07477); test: Competitive inhibition assay, cationic trypsin; format: biochemical; conditions: human trypsin 1
# T3 construct: made in house; host or cells: E. coli
# Protocol: as §5, §1, §3, §4
# mesotrypsin [4] = molecular target: T1, mesotrypsin; test: Mesotrypsin activity assay (colorimetric, N-Cbz-Gly-Pro-Arg-pNA); format: biochemical; conditions: 0.25 nM enzyme, 100 μM substrate, compound 50 nM to 500 μM, 37°C
# Protocol: Compounds were tested by an in vitro activity assay utilizing the colorimetric peptide reporter substrate N-Cbz-Gly-Pro-Arg-pNA. The assay monitors the rate of para-nitroaniline production after substrate cleavage by mesotrypsin.
# as §1
# as §2, with “Reactions consisted of 0.25 nM enzyme, 100 μM reporter substrate, 100 mM Tris-HCl pH 8.0, 1 mM CaCl2, and a compound concentration range between 50 nM to 500 μM in the assay.” left out
# T2 sequence (P07478 24-247): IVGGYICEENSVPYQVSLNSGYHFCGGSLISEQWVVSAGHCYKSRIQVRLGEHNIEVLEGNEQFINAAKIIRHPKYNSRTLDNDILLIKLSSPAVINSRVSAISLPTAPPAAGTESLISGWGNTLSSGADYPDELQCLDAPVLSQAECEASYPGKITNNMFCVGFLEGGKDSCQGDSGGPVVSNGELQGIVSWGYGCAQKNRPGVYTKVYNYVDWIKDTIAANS
SMILES,Ki (trypsin IV (mesotrypsin)) [µM],Ki (mesotrypsin [1]) [µM],"inhibition mode (mesotrypsin [1]; multiple substrate and compound concentrations, Lineweaver-Burk)",Ki [2] [µM],Ki [3] [µM],inhibitory activity towards mesotrypsin (mesotrypsin [4])
N=C(N)c1ccccc1 [Benzamidine],22,,,,,
N=C(N)c1ccc(/N=N/Nc2ccc(C(=N)N)cc2)cc1 [Diminazene],,3.66,competitive inhibitor,2.29 ± 0.21,3.44 ± 0.41,low micromolar range
"N=C(N)c1ccc(/C=C/c2ccc(C(=N)N)cc2O)cc1 [Hydroxystilbamidine, hydroxystilbamidine]",,10.6,,1.7 ± 0.05,3.35 ± 0.35,low micromolar range
"N=C(N)c1ccc(OCCCCCOc2ccc(C(=N)N)cc2)cc1 [Pentamidine, pentamidine]",,5.1,,1.06 ± 0.01,3.12 ± 0.6,
